Measured values taken from patent US5567605A, “Assay for D-allose using a NAD cofactor coupled D-allose dehydrogenase” (UOP, priority 1994, dated 1996).
Where “and” joins values, the source holds several entries; their conditions need not be identical. Equal entries are not always repeated.

How the values were obtained:
[1] = animals and humans; cited from earlier work
D-allose dehydrogenase [2] = assay: Visual qualitative D-allose assay with electron accepting dyes; format: biochemical, Exophiala pisciphila; settings: phenozine methosulfate and nitro blue tetrazolium, phosphate buffer pH 8.0
From the text: The assay can be coupled with electron accepting dyes to form a visual qualitative D-allose assay. […] Control samples without D-allose remain light pink. The nature of the electron-accepting dye is not critical to the success of this qualitative assay; electron-accepting dyes are well known in the biochemical arts and are merely exemplified by the class of tetrazolium salts, one of which is nitro blue tetrazolium.
The visual D-allose assay contained: […]

D-allose dehydrogenase [3] = assay: NAD cofactor coupled D-allose dehydrogenase spectrophotometric enzyme assay (340 nm); format: biochemical, Exophiala pisciphila; settings: for Activity (carbohydrate specificity): Sugar 100 mM as substrate, pH 9.0, 30° C., same dose of enzyme extract
Procedure: Soil and water samples were obtained from several sites and incubated with D-allose in a basic salts solution. The bacterial and fungal cultures were grown aerobically at 30° C. in a rotary incubator at 250 rpm. The basic salts growth medium contained: Na2 HPO4, 16 raM; KH2 PO4, 34 mM; (NH4)2 SO4, 15 mM; MgSO4, 1 mM; CaCl2, 0.1 mM; FeSO4, 0.01 mM and D-allose, 10 mM. The pH of the medium was 6.5. After growth in liquid, as determined by an increase in optical density, the cultures were streaked out on solid agar media containing D-allose as the growth substrate. […] After growth on D-allose, the individual cultures were harvested by centrifugation and the cells disrupted using a sonicator. Cell debris was removed by centrifugation and the crude cell extract was assayed for D-allose dehydrogenase enzymatic activity.
The enzyme assay was performed with a Beckman DU70 recording spectrophotometer using 340 nanometer wavelength light with 20 sec. interval readings for a 10 minute time period. Assays were run in 1 ml cuvettes at a constant temperature of 30° C. The instantaneous reaction rate was measured as the change in optical density per minute; activity was calculated at early reaction times when the changes in optical density were linear with time. The rate of enzyme reaction is directly proportional to the appearance of reduced NAD at 340 nm, because the enzyme oxidizes D-allose and transfers two protons from D-allose to NAD. The extinction coefficient of NADH2 (6.23 OD/1 mM solution) was used to convert the change in optical density per minute to micromoles of product. A standard curve of reaction rate versus substrate concentration was used to determine the D-allose concentration in unknown samples (FIG. 1). The Km of an enzyme is the concentration of substrate that gives one half maximal reaction rate and is thus a measure of the affinity of the enzyme for this substrate. The Vmax of an enzyme is the maximum rate of reaction that can be obtained where the substrate concentration is fully saturating the enzyme. […] An internal standard control using a 20 mM addition of D-allose to a duplicate unknown sample was used to determine if the sample interfered with D-allose measurement. If interference was detected, the unknown sample D-allose concentration was corrected for by the percent interference measured in the internal control sample.
The spectrophotometric enzyme reactions were performed in a 1 mL cuvette that contained the following. […]
The results of Table 1 were obtained at 30° C. using a solution containing 100 mM in D-allose.
In this series, a constant amount of enzyme extract was added to D-allose at various concentrations with the results summarized in Table 2.
In these experiments 1 mL of a 100 mM solution of various sugars were treated at pH 9.0 and 30° C. with the same dose of enzyme extract.

## O=C[C@H](O)[C@H](O)[C@H](O)[C@H](O)CO [D-allose]
[1]
  excretion: easily excreted
  metabolism: not readily metabolized
D-allose dehydrogenase [2]
  visual color change: color change from light pink to dark blue
D-allose dehydrogenase [3]; 30° C., pH 9.0 glycine-NaOH, NAD 5 mM, read-out: apparent Km for the enzyme with D-allose as substrate
  Km: 77 mM
D-allose dehydrogenase [3]; Buffer 0.2 molar, initial pH 9.0, final pH 8.5, 100 mM D-allose, 30° C.
  Activity: 2.35 µmol/min/mL
D-allose dehydrogenase [3]; Buffer 0.5 molar, initial pH 9.0, final pH 8.9, 100 mM D-allose, 30° C.
  Activity: 2.56 µmol/min/mL
D-allose dehydrogenase [3]; Buffer 1.0 molar, initial pH 9.0, final pH 9.0, 100 mM D-allose, 30° C.
  Activity: 2.75 µmol/min/mL
D-allose dehydrogenase [3]; Buffer 2.0 molar, initial pH 9.0, final pH 9.0, 100 mM D-allose, 30° C.
  Activity: 3.13 µmol/min/mL
D-allose dehydrogenase [3]; D-allose 1 mM, constant amount of enzyme extract
  Activity: 0.13 μmole/min/ml of extract
D-allose dehydrogenase [3]; D-allose 10 mM in 20% human serum
  % Inhibition: 16%
D-allose dehydrogenase [3]; D-allose 10 mM, constant amount of enzyme extract
  Activity: 0.80 μmole/min/ml of extract
D-allose dehydrogenase [3]; D-allose 100 mM, constant amount of enzyme extract
  Activity: 3.07 μmole/min/ml of extract
D-allose dehydrogenase [3]; Enzyme Extract 20 μL, 100 mM D-allose, 30° C.
  Activity: 0.09 µmol/min
D-allose dehydrogenase [3]; Enzyme Extract 50 μL, 100 mM D-allose, 30° C.
  Activity: 0.15 µmol/min
D-allose dehydrogenase [3]; Enzyme Extract 100 μL, 100 mM D-allose, 30° C.
  Activity: 0.26 µmol/min
D-allose dehydrogenase [3]
  Activity (carbohydrate specificity): 2.93 µmol/min/mL
D-allose dehydrogenase [3]; pH of assay buffer 8.0, 100 mM D-allose, 30° C.
  Activity: < 0.05 µmol/min/mL
D-allose dehydrogenase [3]; pH of assay buffer 8.5, 100 mM D-allose, 30° C.
  Activity: 0.78 µmol/min/mL
D-allose dehydrogenase [3]; pH of assay buffer 9.0, 100 mM D-allose, 30° C.
  Activity: 2.38 µmol/min/mL and 2.31 µmol/min/mL
D-allose dehydrogenase [3]; pH of assay buffer 9.5, 100 mM D-allose, 30° C.
  Activity: 0.10 µmol/min/mL
D-allose dehydrogenase [3]; pH of assay buffer 10.0, 100 mM D-allose, 30° C.
  Activity: < 0.05 µmol/min/mL

## O=C[C@@H](O)[C@@H](O)[C@H](O)[C@H](O)CO [D-mannose, reference compound]
D-allose dehydrogenase [3]
  Activity (carbohydrate specificity): < 0.07 µmol/min/mL

## O=C[C@H](O)[C@@H](O)[C@H](O)[C@H](O)CO [D-glucose, reference compound]
D-allose dehydrogenase [3]
  Activity (carbohydrate specificity): < 0.07 µmol/min/mL

## O=C[C@H](O)[C@H](O)[C@H](O)CO [D-ribose, reference compound]
D-allose dehydrogenase [3]
  Activity (carbohydrate specificity): < 0.07 µmol/min/mL

## O=C[C@@H](O)[C@H](O)[C@H](O)[C@H](O)CO [D-altrose, reference compound]
D-allose dehydrogenase [3]
  Activity (carbohydrate specificity): < 0.07 µmol/min/mL
